{
  "source": "the SangsterLogP compilation",
  "data": [
    {"settings": "pH 2.0", "values": [
      {"smiles": "CC[C@@H](NS(=O)(=O)c1ccc(C)cc1)C(=O)Oc1ccc2c3c(c(=O)oc2c1)CCCC3", "logD": 3.08},
      {"smiles": "COc1ccc([C@@H](C(=O)Nc2ccc3c(c2)OCCO3)N(C)C(=O)Cc2c[nH]c3ccccc23)cc1", "logD": 3.76},
      {"smiles": "CCOC(=O)/C=c1/s/c(=C/c2c(F)cccc2F)c(=O)n1CC(=O)N(C)C", "logD": 3.17},
      {"smiles": "O=C1[C@@H]2[C@@H]3[C@H]4C[C@H]5[C@@H]3[C@@H]2C2(OCCO2)[C@H]5[C@@H]14", "logD": 0.51},
      {"smiles": "COc1ccccc1NC(=S)N[C@H](NC(=O)c1ccccc1C)C(Cl)(Cl)Cl", "logD": 3.95},
      {"smiles": "CC(=O)N1Cc2ccccc2C[C@H]1C(=O)OCc1ccc(C#N)cc1", "logD": 2.41},
      {"smiles": "O=C(/C=C/c1ccco1)Nc1ccccc1NC(=O)/C=C/c1ccco1", "logD": 3.79}
    ]},
    {"settings": "pH 5.0", "values": [
      {"smiles": "N#C[C@@H](Cc1cccs1)c1ncc(C(F)(F)F)cc1Cl", "logD": 4.09},
      {"smiles": "COc1ccc(C(=O)/C=C/C=C(Cl)Cl)cc1", "logD": 4.4},
      {"smiles": "CCCC(=O)NC[C@@H](C)NC(=O)CCC", "logD": 1.43},
      {"smiles": "C[C@H]1CN(C(=O)c2csc3c2CCCC3)/C(=N/c2ccc(Cl)cc2)S1", "logD": 5.53},
      {"smiles": "O=C(c1nn2c(c1Br)N[C@H](c1cccs1)C[C@H]2C(F)(F)F)N1CCCC1", "logD": 4.47},
      {"smiles": "Cc1ccc([C@@H](O)P(=O)(OCC(C)C)OCC(C)C)cc1", "logD": 4.44},
      {"smiles": "O=C(Nc1ccc2c(c1)OCO2)[C@@H]1COc2ccccc2O1", "logD": 3.28},
      {"smiles": "CC(C)C(=O)N[C@H](Oc1ccc(C=O)cc1)C(Cl)(Cl)Cl", "logD": 3.68},
      {"smiles": "O=C1/C(=C/c2c(Sc3ccccc3)nc3ccccn3c2=O)SC(=S)N1C[C@H]1CCCO1", "logD": 5.87},
      {"smiles": "CCc1ccccc1NC(=O)[C@]12CC[C@](C)(C(=O)O1)C2(C)C", "logD": 3.31},
      {"smiles": "CCOC(=O)N1CCN(C(=O)c2noc3c2C[C@@H](C(C)(C)C)CC3)CC1", "logD": 4.52},
      {"smiles": "CCCS(=O)(=O)c1c(S(=O)(=O)CCC)c2c3ccccc3ccn2c1C(=O)c1ccccc1", "logD": 4.48},
      {"smiles": "Cc1c(Cl)c(C(F)(F)F)nn1[C@@H](C)C(=O)N1CCOCC1", "logD": 3.08},
      {"smiles": "CCN(CC)S(=O)(=O)N1CCC[C@H](C(=O)NC2CCCCC2)C1", "logD": 3.58},
      {"smiles": "CCOc1ccc(C[C@H]2c3cc(OCC)c(OCC)cc3CCN2C(=O)c2scnc2C)cc1OCC", "logD": 4.98},
      {"smiles": "C[C@@H](Oc1ccc(F)cc1F)C(=O)c1cn(-c2ccc(OC(F)(F)F)cc2)nn1", "logD": 5.83},
      {"smiles": "C[C@@]12CC[C@H]3C[C@]1(C#N)N(C(=O)c1cccc([N+](=O)[O-])c1)C[C@]32C", "logD": 3.25},
      {"smiles": "C[C@H]1C[C@H](NC(=S)NCc2csc3ccccc23)CC(C)(C)C1", "logD": 6.21},
      {"smiles": "COC(=O)c1c(NC(=O)Cn2nc(C)c([N+](=O)[O-])c2C)sc2c1CC[C@H](C(C)(C)C)C2", "logD": 6.53},
      {"smiles": "CCOCCOC(=O)c1ccc(NC(=O)COc2ccc(C)cc2Br)cc1", "logD": 5.36},
      {"smiles": "CC1(C)C[C@](C)(O)[P@](C)(=O)O1", "logD": 0.71},
      {"smiles": "COC(=O)[C@H]1OC(c2ccccc2)O[C@H]1C(=O)OC", "note": "(stereo partly specified)", "logD": 2.49},
      {"smiles": "CCOC(=O)N1CCN(C(=O)c2ccc(N3C(=O)[C@H]4CCCC[C@@H]4C3=O)cc2)CC1", "logD": 3.74},
      {"smiles": "O=C1CC[C@H]2CCCC[C@@]2(O)O1", "logD": 1.16},
      {"smiles": "Cc1ccc(C)c(NC(=O)[C@H]2CC3c4ccccc4C2c2ccccc23)c1", "logD": 5.26},
      {"smiles": "CCOC(=O)c1c(C)nc(SC[C@@]2(O)CCCC[C@@H]2SC)c(C#N)c1-c1ccccc1", "logD": 6.01},
      {"smiles": "O=C1C[C@@H](c2c(F)cccc2Cl)c2cc3c(cc2N1)OCCO3", "logD": 3.96},
      {"smiles": "CCOC(=O)c1c(NC=C2C(=O)N(C)C(=O)N(C)C2=O)sc2c1CC[C@@H](CC)C2", "logD": 5.76},
      {"smiles": "C[C@@H]1CCCC[C@H]1NC(=O)COC(=O)C1=COCCO1", "logD": 2.48},
      {"smiles": "CCCCN1C(=O)c2ccc(C(=O)OCC(=O)N[C@H](C)C(C)C)cc2C1=O", "logD": 3.62},
      {"smiles": "CC[C@]1(C)NC(=S)N2N1C(=S)N[C@@]2(C)CC", "logD": 2.44},
      {"smiles": "COc1cc([C@H]2C(C(=O)c3ccccc3)=C(N)N(c3ccccc3C(F)(F)F)C3=C2C(=O)CCC3)cc(OC)c1OC", "logD": 4.51},
      {"smiles": "O=C1Nc2cc(C(=O)NC3CC3)ccc2S/C1=C\\c1ccccc1", "logD": 4.32}
    ]},
    {"settings": "pH 6.5", "values": [
      {"smiles": "C[C@@H](CCc1ccccc1)NC(=O)C(=O)NC[C@@H]1COc2ccccc2O1", "logD": 4.8},
      {"smiles": "Cc1ccc(S(=O)(=O)/N=C2\\SC(=CN(C)C)C(=O)N2C2CCCCC2)cc1", "logD": 4.75},
      {"smiles": "CCOC(=O)c1[nH]c(C)c(C(=O)OCC(=O)N2CCc3ccccc32)c1C", "logD": 4.47},
      {"smiles": "CC[C@@H]1CCCCN1C(=O)COc1cccc2c1CCN(Cc1ccc(Cl)cc1)C2=O", "logD": 5.23},
      {"smiles": "COC[C@H](C)NC(=O)CCl", "logD": 0.61},
      {"smiles": "COc1ccccc1N(CCOC(=O)[C@@H]1CC(=O)N(c2ccccc2)C1)C1=NS(=O)(=O)c2ccccc21", "logD": 2.5},
      {"smiles": "N#CC1(C#N)[C@H](c2ccc(Br)s2)[C@@H](C(=O)c2ccccc2)N2c3ccccc3C=C[C@@H]21", "logD": 5.05},
      {"smiles": "COc1cccc(/C=C/C(=O)OCC(=O)c2cc(C)n(-c3cc(C)on3)c2C)c1", "logD": 5.2},
      {"smiles": "CCCCNC(=S)N(C)/N=C/c1ccc(OCc2ccc(Cl)cc2)c(OC)c1", "logD": 6.8},
      {"smiles": "Cc1ccc(NC(=O)COC(=O)/C(=C/c2cccs2)c2cccs2)c(C)c1", "logD": 3.83}
    ]},
    {"settings": "pH 7.0", "values": [
      {"smiles": "CC(=O)Nc1ccc([C@H]2C(C#N)=C(N)Oc3c2c(C)nn3-c2cccc(Cl)c2)cc1", "logD": 4.93},
      {"smiles": "O=C(/C=C/c1ccccc1)Nc1ccc(N2CCN(C(=O)c3cccs3)CC2)cc1", "logD": 4.94}
    ]},
    {"settings": "pH 7.3", "values": [
      {"smiles": "COc1ccc([C@H]2C[C@H](C(F)(F)F)n3ncc(C(=O)N(C)Cc4cnn(C)c4C)c3N2)cc1OC", "logD": 4.25},
      {"smiles": "Cc1cc(C)n(-c2ccc(-n3cccc3/C=C(\\C#N)S(C)(=O)=O)cc2)n1", "logD": 4.25},
      {"smiles": "CSc1ncc2c(n1)-c1c(SC)sc(C(=O)Nc3ccc(Cl)cc3)c1CC2", "logD": 5.87},
      {"smiles": "CC(C)[C@@H](Sc1nnc(C(F)(F)F)n1C)C(=O)NC(N)=O", "logD": 2.12},
      {"smiles": "COc1ccc([C@H]2C[C@@H](c3ccc(-c4ccccc4)cc3)Nc3ncnn32)cc1", "logD": 5.42}
    ]},
    {"settings": "pH 8.0", "values": [
      {"smiles": "Cc1sc2ncn(CC(=O)N[C@@H]3CCC[C@@H](C)[C@H]3C)c(=O)c2c1C", "logD": 4.34},
      {"smiles": "CCc1cccc(C)c1N(C(=O)Cn1c([C@@H](C)O)nc2ccccc21)[C@@H](C)COC", "logD": 4.48},
      {"smiles": "COc1ccc([C@@H]2Nc3ccccc3C(=O)N2c2ccccc2)cc1COc1ccc(NC(C)=O)cc1", "logD": 4.65}
    ]},
    {"settings": "pH 10.0", "values": [
      {"smiles": "CCOC(=O)[C@H]1N=C(C2=C(O)c3ccccc3C2=O)[C@@H]2C(=O)N(N(C)c3ncc(C(F)(F)F)cc3Cl)C(=O)[C@@H]21", "logD": 4.38},
      {"smiles": "CC[C@@H](SC1=Nc2ccccc2C2=N[C@@H](Cc3ccccc3)C(=O)N12)C(=O)N1CCOCC1", "logD": 3.95},
      {"smiles": "CC[C@@H]1CCCCN1C(=O)[C@H]1CC(c2cc(Cl)c(OC)cc2OC)=NO1", "logD": 4.55},
      {"smiles": "COc1ccc2c(c1)C(=O)N(Cc1ccco1)C(=O)/C2=C\\Nc1c(C)n(C)n(-c2ccccc2)c1=O", "logD": 4.66},
      {"smiles": "CCOC(=O)C1=C(C)NC2=C(C(=O)C[C@H](c3ccc(OC)c(OC)c3)C2)[C@H]1c1ccccc1OC", "logD": 3.79},
      {"smiles": "CC1=C(C(=O)OCCc2ccccc2)[C@@H](c2ccc3c(c2)OCO3)C2=C(C[C@H](c3cccs3)CC2=O)N1", "logD": 5.44}
    ]},
    {"settings": "pH 10.5", "values": [
      {"smiles": "COC(=O)CC1=C(C(=O)OC)[C@]2(C(=O)Nc3ccccc32)C(C(=O)OCc2ccccc2)=C(N)O1", "logD": 4.25},
      {"smiles": "Cc1cc2c(c(=O)o1)[C@@H](c1cccc(F)c1F)C(C#N)=C(N)O2", "logD": 3.1},
      {"smiles": "CCOc1ccc(N2CN=c3s/c(=C\\c4cc(OC)c(OC)cc4[N+](=O)[O-])c(=O)n3C2)cc1", "logD": 4.93},
      {"smiles": "N#CC1=C(N)OC2=NN=C(c3cccs3)[C@@H]2[C@@H]1C1CCCCC1", "logD": 4.64},
      {"smiles": "Cc1ccc(NCc2ccc3n2C/C(=C2/CCn4c(CNc5ccc(C)cc5)ccc42)C3=O)cc1", "logD": 6.51}
    ]}
  ]
}
